Results: the NIST ThermoML archive (doi:10.1016/j.jct.2006.07.022)

Assay: xn = mol fraction of the nth substance listed
Details: 101 kPa, Liquid

CN(C)C=O [dimethylformamide] + c1ccccc1
Details | mass density [kg/m3]
293.15 K, x2 = 0 | 948.58
293.15 K, x2 = 0.0785 | 943.13
293.15 K, x2 = 0.1347 | 939.28
293.15 K, x2 = 0.2036 | 934.59
293.15 K, x2 = 0.2699 | 930.11
293.15 K, x2 = 0.3352 | 925.71
293.15 K, x2 = 0.4034 | 921.13
293.15 K, x2 = 0.4874 | 915.49
293.15 K, x2 = 0.5432 | 911.72
293.15 K, x2 = 0.6044 | 907.55
293.15 K, x2 = 0.6705 | 903
293.15 K, x2 = 0.7413 | 898.06
293.15 K, x2 = 0.8056 | 893.49
293.15 K, x2 = 0.871 | 888.73
293.15 K, x2 = 0.9214 | 884.99
293.15 K, x2 = 0.9785 | 880.66
303.15 K, x2 = 0 | 939.46
303.15 K, x2 = 0.0689 | 934.59
303.15 K, x2 = 0.1354 | 929.93
303.15 K, x2 = 0.2037 | 925.19
303.15 K, x2 = 0.2701 | 920.6
303.15 K, x2 = 0.3387 | 915.87
303.15 K, x2 = 0.407 | 911.17
303.15 K, x2 = 0.4735 | 906.6
303.15 K, x2 = 0.5403 | 901.98
303.15 K, x2 = 0.6054 | 897.43
303.15 K, x2 = 0.6791 | 892.23
303.15 K, x2 = 0.7441 | 887.56
303.15 K, x2 = 0.81 | 882.75
303.15 K, x2 = 0.8741 | 877.97
303.15 K, x2 = 0.9245 | 874.12
303.15 K, x2 = 0.9784 | 869.92
313.15 K, x2 = 0 | 930.12
313.15 K, x2 = 0.0655 | 925.37
313.15 K, x2 = 0.1357 | 920.35
313.15 K, x2 = 0.2019 | 915.66
313.15 K, x2 = 0.2684 | 910.98
313.15 K, x2 = 0.336 | 906.21
313.15 K, x2 = 0.4063 | 901.26
313.15 K, x2 = 0.4726 | 896.57
313.15 K, x2 = 0.5367 | 892.03
313.15 K, x2 = 0.6038 | 887.24
313.15 K, x2 = 0.6792 | 881.8
313.15 K, x2 = 0.738 | 877.51
313.15 K, x2 = 0.8119 | 872.03
313.15 K, x2 = 0.873 | 867.4
313.15 K, x2 = 0.9314 | 862.88
313.15 K, x2 = 0.98 | 859.02
323.15 K, x2 = 0 | 920.55
323.15 K, x2 = 0.0785 | 914.76
323.15 K, x2 = 0.1359 | 910.58
323.15 K, x2 = 0.2021 | 905.79
323.15 K, x2 = 0.2687 | 901.01
323.15 K, x2 = 0.3364 | 896.14
323.15 K, x2 = 0.4066 | 891.09
323.15 K, x2 = 0.4735 | 886.28
323.15 K, x2 = 0.5415 | 881.37
323.15 K, x2 = 0.6092 | 876.44
323.15 K, x2 = 0.6736 | 871.72
323.15 K, x2 = 0.7453 | 866.4
323.15 K, x2 = 0.8089 | 861.6
323.15 K, x2 = 0.8797 | 856.16
323.15 K, x2 = 0.9374 | 851.62
323.15 K, x2 = 0.9777 | 848.38
333.15 K, x2 = 0 | 910.75
333.15 K, x2 = 0.0695 | 905.54
333.15 K, x2 = 0.1354 | 900.67
333.15 K, x2 = 0.2026 | 895.73
333.15 K, x2 = 0.2701 | 890.79
333.15 K, x2 = 0.3321 | 886.27
333.15 K, x2 = 0.4042 | 881.01
333.15 K, x2 = 0.475 | 875.82
333.15 K, x2 = 0.5487 | 870.41
333.15 K, x2 = 0.6014 | 866.51
333.15 K, x2 = 0.6758 | 860.97
333.15 K, x2 = 0.7371 | 856.36
333.15 K, x2 = 0.8142 | 850.48
333.15 K, x2 = 0.8809 | 845.28
333.15 K, x2 = 0.9398 | 840.58
333.15 K, x2 = 0.9785 | 837.43
343.15 K, x2 = 0 | 900.73
343.15 K, x2 = 0.0577 | 896.35
343.15 K, x2 = 0.1155 | 892
343.15 K, x2 = 0.1728 | 887.74
343.15 K, x2 = 0.2388 | 882.84
343.15 K, x2 = 0.299 | 878.39
343.15 K, x2 = 0.3652 | 873.49
343.15 K, x2 = 0.4202 | 869.41
343.15 K, x2 = 0.504 | 863.2
343.15 K, x2 = 0.5606 | 858.98
343.15 K, x2 = 0.6275 | 853.95
343.15 K, x2 = 0.6963 | 848.75
343.15 K, x2 = 0.7585 | 844
343.15 K, x2 = 0.8187 | 839.33
343.15 K, x2 = 0.8814 | 834.39
343.15 K, x2 = 0.9584 | 828.16

CCc1ccccc1 [ethylbenzene] + CN(C)C=O
Details | mass density [kg/m3]
293.15 K, x1 = 0.0514 | 942.69
293.15 K, x1 = 0.1124 | 936.07
293.15 K, x1 = 0.1754 | 929.58
293.15 K, x1 = 0.2451 | 922.8
293.15 K, x1 = 0.3102 | 916.81
293.15 K, x1 = 0.3754 | 911.11
293.15 K, x1 = 0.4514 | 904.81
293.15 K, x1 = 0.5214 | 899.3
293.15 K, x1 = 0.5862 | 894.43
293.15 K, x1 = 0.6478 | 890
293.15 K, x1 = 0.7012 | 886.28
293.15 K, x1 = 0.7658 | 881.94
293.15 K, x1 = 0.8214 | 878.33
293.15 K, x1 = 0.8845 | 874.33
293.15 K, x1 = 0.9451 | 870.6
293.15 K, x1 = 1 | 867.28
303.15 K, x1 = 0.0562 | 933.08
303.15 K, x1 = 0.1141 | 926.82
303.15 K, x1 = 0.1865 | 919.45
303.15 K, x1 = 0.2451 | 913.8
303.15 K, x1 = 0.3065 | 908.15
303.15 K, x1 = 0.375 | 902.18
303.15 K, x1 = 0.4354 | 897.14
303.15 K, x1 = 0.4952 | 892.39
303.15 K, x1 = 0.5685 | 886.81
303.15 K, x1 = 0.6284 | 882.45
303.15 K, x1 = 0.7025 | 877.28
303.15 K, x1 = 0.7654 | 873.05
303.15 K, x1 = 0.8251 | 869.17
303.15 K, x1 = 0.8821 | 865.57
303.15 K, x1 = 0.9422 | 861.86
303.15 K, x1 = 1 | 858.36
313.15 K, x1 = 0.0684 | 922.45
313.15 K, x1 = 0.1151 | 917.46
313.15 K, x1 = 0.1855 | 910.34
313.15 K, x1 = 0.2525 | 903.93
313.15 K, x1 = 0.3101 | 898.69
313.15 K, x1 = 0.3852 | 892.2
313.15 K, x1 = 0.4421 | 887.51
313.15 K, x1 = 0.5012 | 882.85
313.15 K, x1 = 0.5688 | 877.74
313.15 K, x1 = 0.6211 | 873.93
313.15 K, x1 = 0.6855 | 869.42
313.15 K, x1 = 0.7451 | 865.39
313.15 K, x1 = 0.8021 | 861.65
313.15 K, x1 = 0.8654 | 857.62
313.15 K, x1 = 0.9325 | 853.47
313.15 K, x1 = 1 | 849.38
323.15 K, x1 = 0.0463 | 915.35
323.15 K, x1 = 0.1125 | 908.29
323.15 K, x1 = 0.1785 | 901.64
323.15 K, x1 = 0.2462 | 895.17
323.15 K, x1 = 0.312 | 889.22
323.15 K, x1 = 0.3745 | 883.85
323.15 K, x1 = 0.4352 | 878.85
323.15 K, x1 = 0.4952 | 874.12
323.15 K, x1 = 0.5552 | 869.58
323.15 K, x1 = 0.6125 | 865.41
323.15 K, x1 = 0.6784 | 860.79
323.15 K, x1 = 0.7451 | 856.29
323.15 K, x1 = 0.8021 | 852.57
323.15 K, x1 = 0.8666 | 848.48
323.15 K, x1 = 0.9451 | 843.65
323.15 K, x1 = 1 | 840.35
333.15 K, x1 = 0.0548 | 904.7
333.15 K, x1 = 0.1241 | 897.45
333.15 K, x1 = 0.1852 | 891.41
333.15 K, x1 = 0.2451 | 885.77
333.15 K, x1 = 0.3021 | 880.64
333.15 K, x1 = 0.3625 | 875.45
333.15 K, x1 = 0.4255 | 870.27
333.15 K, x1 = 0.4954 | 864.79
333.15 K, x1 = 0.5621 | 859.79
333.15 K, x1 = 0.6215 | 855.53
333.15 K, x1 = 0.6865 | 851.02
333.15 K, x1 = 0.7451 | 847.11
333.15 K, x1 = 0.8002 | 843.53
333.15 K, x1 = 0.8621 | 839.62
333.15 K, x1 = 0.9351 | 835.15
333.15 K, x1 = 1 | 831.25
343.15 K, x1 = 0.0689 | 893.27
343.15 K, x1 = 0.132 | 886.83
343.15 K, x1 = 0.1952 | 880.71
343.15 K, x1 = 0.2621 | 874.55
343.15 K, x1 = 0.3262 | 868.95
343.15 K, x1 = 0.3865 | 863.91
343.15 K, x1 = 0.4461 | 859.15
343.15 K, x1 = 0.5121 | 854.09
343.15 K, x1 = 0.5685 | 849.94
343.15 K, x1 = 0.6332 | 845.36
343.15 K, x1 = 0.7095 | 840.17
343.15 K, x1 = 0.7651 | 836.53
343.15 K, x1 = 0.8221 | 832.9
343.15 K, x1 = 0.8858 | 828.96
343.15 K, x1 = 0.9514 | 824.99
343.15 K, x1 = 1 | 822.11
353.15 K, x1 = 0.0458 | 885.55
353.15 K, x1 = 0.1112 | 878.86
353.15 K, x1 = 0.1784 | 872.35
353.15 K, x1 = 0.2351 | 867.13
353.15 K, x1 = 0.2965 | 861.72
353.15 K, x1 = 0.3589 | 856.48
353.15 K, x1 = 0.4152 | 851.94
353.15 K, x1 = 0.4784 | 847.06
353.15 K, x1 = 0.5321 | 843.06
353.15 K, x1 = 0.5962 | 838.48
353.15 K, x1 = 0.6748 | 833.09
353.15 K, x1 = 0.7451 | 828.47
353.15 K, x1 = 0.8032 | 824.77
353.15 K, x1 = 0.8745 | 820.37
353.15 K, x1 = 0.9548 | 815.56
353.15 K, x1 = 1 | 812.9
